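These data come from cells grown in 96-well plates and exposed to compound for 48 hours at five concentrations. TGI: concentration producing complete growth inhibition.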
What was measured:
Assay in all cases: NCI tumour cell line growth inhibition, 48 h
NCI/ADR-RES ovarian = system: NCI/ADR-RES ovarian
SF-539 CNS = system: SF-539 CNS
K-562 leukemia = system: K-562 leukemia
BT-549 breast = system: BT-549 breast
NCI-H23 lung = system: NCI-H23 lung
MDA-N = system: MDA-N
IGROV1 ovarian = system: IGROV1 ovarian
SK-MEL-5 melanoma = system: SK-MEL-5 melanoma
OVCAR-5 ovarian = system: OVCAR-5 ovarian
RPMI-8226 leukemia = system: RPMI-8226 leukemia

CC(=O)O[C@H]1C(=O)[C@@]2(C)[C@H]([C@H](OC(=O)c3ccccc3)[C@]3(O)C[C@H](OC(=O)[C@H](O)[C@@H](NC(=O)CC(C)(C)C)c4ccccc4)C(C)=C1C3(C)C)C1(OC(C)=O)CO[C@@H]1C[C@@H]2O (stereo partly drawn)
TGI (NCI/ADR-RES ovarian): > 10 µM | TGI (SF-539 CNS): 0.00453 µM | TGI (K-562 leukemia): > 10 µM | TGI (BT-549 breast): > 10 µM | TGI (NCI-H23 lung): > 10 µM | TGI (MDA-N): > 10 µM | TGI (IGROV1 ovarian): > 10 µM | TGI (SK-MEL-5 melanoma): > 10 µM | TGI (OVCAR-5 ovarian): > 2.93 µM

C/C(O)=C/c1nc2ccc([N+](=O)[O-])cc2nc1/C=C(/C)O
TGI (NCI/ADR-RES ovarian): > 100 µM | TGI (SF-539 CNS): > 100 µM | TGI (K-562 leukemia): > 100 µM | TGI (RPMI-8226 leukemia): 65.1 µM | TGI (BT-549 breast): > 100 µM | TGI (NCI-H23 lung): > 100 µM | TGI (MDA-N): > 100 µM | TGI (IGROV1 ovarian): > 100 µM | TGI (SK-MEL-5 melanoma): > 100 µM | TGI (OVCAR-5 ovarian): > 100 µM

COc1cc(C2SCC(=O)N2c2ccc(Oc3ccc(Cl)cc3)c(Cl)c2)cc(OC)c1OC (stereo not drawn)
TGI (NCI/ADR-RES ovarian): 30.4 µM | TGI (SF-539 CNS): 54.2 µM | TGI (K-562 leukemia): > 100 µM | TGI (RPMI-8226 leukemia): > 100 µM | TGI (BT-549 breast): 32.5 µM | TGI (NCI-H23 lung): > 100 µM | TGI (MDA-N): 45.1 µM | TGI (IGROV1 ovarian): 30.7 µM | TGI (SK-MEL-5 melanoma): 32.1 µM | TGI (OVCAR-5 ovarian): 55.7 µM

Cn1c2ccccc2c2c3c(c4c5ccccc5n(C)c4c21)C(=O)c1ccccc1C3=O
TGI (NCI/ADR-RES ovarian): > 100 µM | TGI (SF-539 CNS): 51.1 µM | TGI (RPMI-8226 leukemia): > 100 µM | TGI (BT-549 breast): 52.6 µM | TGI (NCI-H23 lung): 63.5 µM | TGI (MDA-N): > 100 µM | TGI (IGROV1 ovarian): > 100 µM | TGI (SK-MEL-5 melanoma): > 100 µM | TGI (OVCAR-5 ovarian): > 100 µM

O=S1(=O)c2ccccc2NC(=S)CC1c1ccccc1 (stereo not drawn)
TGI (NCI/ADR-RES ovarian): > 100 µM | TGI (K-562 leukemia): > 100 µM | TGI (RPMI-8226 leukemia): > 100 µM | TGI (BT-549 breast): > 100 µM | TGI (NCI-H23 lung): > 100 µM | TGI (MDA-N): > 100 µM | TGI (IGROV1 ovarian): > 100 µM | TGI (SK-MEL-5 melanoma): > 100 µM | TGI (OVCAR-5 ovarian): > 100 µM

CC(=O)c1cc2c(s1)C(=O)c1ccccc1C2=O
TGI (NCI/ADR-RES ovarian): 6.17 µM | TGI (SF-539 CNS): 8.32 µM | TGI (K-562 leukemia): > 100 µM | TGI (RPMI-8226 leukemia): 26.9 µM | TGI (BT-549 breast): 7.75 µM | TGI (MDA-N): 4.74 µM | TGI (IGROV1 ovarian): 5.5 µM | TGI (SK-MEL-5 melanoma): 0.588 µM | TGI (OVCAR-5 ovarian): 20.6 µM

CC(C)(C)OC[C@H](O)CC#N
TGI (SF-539 CNS): > 100 µM | TGI (K-562 leukemia): > 100 µM | TGI (RPMI-8226 leukemia): > 100 µM | TGI (BT-549 breast): > 100 µM | TGI (NCI-H23 lung): > 100 µM | TGI (MDA-N): > 100 µM | TGI (SK-MEL-5 melanoma): > 100 µM | TGI (OVCAR-5 ovarian): > 100 µM

O=C(CNc1ccc(Cl)cc1Cl)NC1C=Cc2ccc(S(=O)(=O)Nc3ccc(Cl)cc3Cl)cc2C1=O (stereo not drawn)
TGI (NCI/ADR-RES ovarian): > 100 µM | TGI (SF-539 CNS): > 100 µM | TGI (K-562 leukemia): > 100 µM | TGI (RPMI-8226 leukemia): > 100 µM | TGI (BT-549 breast): > 100 µM | TGI (NCI-H23 lung): > 100 µM | TGI (MDA-N): > 100 µM | TGI (IGROV1 ovarian): > 100 µM | TGI (OVCAR-5 ovarian): > 100 µM

COc1ccc(OC)c2c1C1CCC(=O)N1CN2C(C)=O (stereo not drawn)
TGI (NCI/ADR-RES ovarian): > 100 µM | TGI (SF-539 CNS): > 100 µM | TGI (K-562 leukemia): > 100 µM | TGI (RPMI-8226 leukemia): > 100 µM | TGI (NCI-H23 lung): > 100 µM | TGI (MDA-N): > 100 µM | TGI (IGROV1 ovarian): > 100 µM | TGI (SK-MEL-5 melanoma): > 100 µM | TGI (OVCAR-5 ovarian): > 100 µM

O=C(N[C@H]1c2ccsc2/C(=N/O)[C@H]1O)C(F)(F)F
TGI (NCI/ADR-RES ovarian): > 100 µM | TGI (SF-539 CNS): > 100 µM | TGI (K-562 leukemia): > 100 µM | TGI (BT-549 breast): > 100 µM | TGI (NCI-H23 lung): > 100 µM | TGI (MDA-N): > 100 µM | TGI (IGROV1 ovarian): > 100 µM | TGI (SK-MEL-5 melanoma): > 100 µM | TGI (OVCAR-5 ovarian): > 100 µM

Cn1cnc2c(sc3nc4ccccc4n32)c1=N
TGI (NCI/ADR-RES ovarian): > 100 µM | TGI (SF-539 CNS): > 100 µM | TGI (RPMI-8226 leukemia): > 100 µM | TGI (BT-549 breast): > 100 µM | TGI (NCI-H23 lung): > 100 µM | TGI (MDA-N): > 100 µM | TGI (IGROV1 ovarian): > 100 µM | TGI (SK-MEL-5 melanoma): > 100 µM | TGI (OVCAR-5 ovarian): > 100 µM

O=C(NCCCNCCNC(=O)c1cc(-c2ccccc2)nc2ccccc12)c1cc(-c2ccccc2)nc2ccccc12
TGI (NCI/ADR-RES ovarian): 4.12 µM | TGI (SF-539 CNS): 3.57 µM | TGI (K-562 leukemia): 4.45 µM | TGI (BT-549 breast): 29.4 µM | TGI (MDA-N): 3.36 µM | TGI (IGROV1 ovarian): 3.59 µM | TGI (SK-MEL-5 melanoma): 3.03 µM

CSc1c(C#N)c2n(c3ccccc13)c1ccccc1[n+]2C
TGI (NCI/ADR-RES ovarian): 68.4 µM | TGI (SF-539 CNS): 78.8 µM | TGI (RPMI-8226 leukemia): 85.6 µM | TGI (BT-549 breast): 74.3 µM | TGI (NCI-H23 lung): 70.7 µM | TGI (MDA-N): 63.5 µM | TGI (IGROV1 ovarian): > 100 µM | TGI (SK-MEL-5 melanoma): 26.7 µM | TGI (OVCAR-5 ovarian): > 100 µM

Cc1cc(C)n(CN(Cn2nc(C)cc2C)C2CCCCC2)n1
TGI (NCI/ADR-RES ovarian): 42.5 µM | TGI (SF-539 CNS): 29.1 µM | TGI (RPMI-8226 leukemia): 38.9 µM | TGI (BT-549 breast): 49.6 µM | TGI (NCI-H23 lung): 56.8 µM | TGI (MDA-N): 34.8 µM | TGI (IGROV1 ovarian): 50.1 µM | TGI (SK-MEL-5 melanoma): > 100 µM | TGI (OVCAR-5 ovarian): 53.8 µM

O=C1c2cccc3cccc(c23)C(=O)N1CCCNOCCONCCCN1C(=O)c2cccc3cccc(c23)C1=O
TGI (NCI/ADR-RES ovarian): > 100 µM | TGI (K-562 leukemia): > 100 µM | TGI (RPMI-8226 leukemia): 74.4 µM | TGI (BT-549 breast): > 100 µM | TGI (NCI-H23 lung): > 100 µM | TGI (MDA-N): > 100 µM | TGI (IGROV1 ovarian): > 100 µM | TGI (SK-MEL-5 melanoma): > 100 µM | TGI (OVCAR-5 ovarian): > 100 µM

COC(=O)C1(Cc2ccccc2)Cc2ccccc2C1
TGI (NCI/ADR-RES ovarian): 69.2 µM | TGI (SF-539 CNS): > 100 µM | TGI (K-562 leukemia): 52.3 µM | TGI (RPMI-8226 leukemia): 57.9 µM | TGI (NCI-H23 lung): > 100 µM | TGI (MDA-N): 49.3 µM | TGI (IGROV1 ovarian): > 100 µM | TGI (SK-MEL-5 melanoma): 31.9 µM | TGI (OVCAR-5 ovarian): > 100 µM

COc1ccccc1Nc1nc(NNC(=O)Cc2ccccc2)nc(NNC(=O)c2ccncc2)n1
TGI (NCI/ADR-RES ovarian): > 10 µM | TGI (SF-539 CNS): > 10 µM | TGI (K-562 leukemia): > 10 µM | TGI (RPMI-8226 leukemia): > 10 µM | TGI (BT-549 breast): > 10 µM | TGI (NCI-H23 lung): > 10 µM | TGI (MDA-N): > 10 µM | TGI (IGROV1 ovarian): > 10 µM | TGI (SK-MEL-5 melanoma): > 10 µM

CC(C)OP(=O)(OC(C)C)C(C(C)C)N(C)/C(F)=N/C(F)(F)F (stereo not drawn)
TGI (NCI/ADR-RES ovarian): > 100 µM | TGI (SF-539 CNS): > 100 µM | TGI (K-562 leukemia): > 100 µM | TGI (BT-549 breast): > 100 µM | TGI (NCI-H23 lung): > 100 µM | TGI (MDA-N): > 100 µM | TGI (IGROV1 ovarian): > 100 µM | TGI (SK-MEL-5 melanoma): > 100 µM | TGI (OVCAR-5 ovarian): > 100 µM

C[n+]1c2ccccc2c(C(=O)Nc2ccc(S(=O)(=O)N=C(N)N)cc2)c2ccccc21
TGI (NCI/ADR-RES ovarian): > 100 µM | TGI (SF-539 CNS): > 100 µM | TGI (K-562 leukemia): > 100 µM | TGI (RPMI-8226 leukemia): > 100 µM | TGI (NCI-H23 lung): > 100 µM | TGI (MDA-N): > 100 µM | TGI (IGROV1 ovarian): > 100 µM | TGI (SK-MEL-5 melanoma): > 100 µM | TGI (OVCAR-5 ovarian): > 100 µM

Clc1ccc(N=c2oc3ccccc3cc2-c2nc3ccccc3[nH]2)c(Cl)c1
TGI (NCI/ADR-RES ovarian): > 100 µM | TGI (K-562 leukemia): > 100 µM | TGI (RPMI-8226 leukemia): > 100 µM | TGI (BT-549 breast): > 100 µM | TGI (NCI-H23 lung): > 100 µM | TGI (MDA-N): > 100 µM | TGI (IGROV1 ovarian): > 100 µM | TGI (OVCAR-5 ovarian): > 100 µM

C[N+](C)(C)c1ncnc2c1ncn2C1CCCCO1 (stereo not drawn)
TGI (NCI/ADR-RES ovarian): > 100 µM | TGI (K-562 leukemia): > 100 µM | TGI (RPMI-8226 leukemia): > 100 µM | TGI (BT-549 breast): > 100 µM | TGI (NCI-H23 lung): > 100 µM | TGI (MDA-N): > 100 µM | TGI (IGROV1 ovarian): > 100 µM | TGI (SK-MEL-5 melanoma): > 100 µM | TGI (OVCAR-5 ovarian): > 100 µM

CCOC(=O)C(/C=N\C(=S)Nc1ccc(OCC)cc1)=C(/O)c1ccccc1
TGI (NCI/ADR-RES ovarian): > 100 µM | TGI (SF-539 CNS): > 100 µM | TGI (K-562 leukemia): > 100 µM | TGI (RPMI-8226 leukemia): > 100 µM | TGI (NCI-H23 lung): > 100 µM | TGI (MDA-N): > 100 µM | TGI (IGROV1 ovarian): > 100 µM | TGI (SK-MEL-5 melanoma): > 100 µM | TGI (OVCAR-5 ovarian): > 100 µM

NNC(=S)N1CCN(C(=S)NN)CC1
TGI (RPMI-8226 leukemia): > 100 µM | TGI (BT-549 breast): > 100 µM | TGI (NCI-H23 lung): > 100 µM | TGI (MDA-N): > 100 µM | TGI (IGROV1 ovarian): > 100 µM | TGI (SK-MEL-5 melanoma): > 100 µM | TGI (OVCAR-5 ovarian): > 100 µM
